Assay results taken from PubChem BioAssay (NCI).
“And” between values parts separate entries of the source, which are not always exact repeats. Identical values can stand only once.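 Values below derive from 48-hour exposures of cells grown in 96-well plates, with endpoints linearly interpolated between the two concentrations bracketing the appropriate inhibition level. Here, GI50 denotes the concentration required for 50% inhibition of growth. Definition used: TGI = concentration required for complete inhibition of growth.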 *1 amine or outer side, *2 acyl side, *3 side chain or, on linkers, in order; H or OH if unused. Where a SMILES comes first, the peptide text is derived from it. Bridges are numbered along the chain shown (N, C = ends). [ ]: non-standard residue; d: D form. The star is where a group is joined. X35 = CC[C@H](C)[C@@H](N[*:1])[C@@H](O)CC(=O)O[C@H](C(=O)[C@H](C)C(=O)[*:2])C(C)C; NMeY = CN[C@@H](Cc1ccc(O)cc1)C(=O)O; NMeF = CN[CH](Cc1ccccc1)C(=O)O; NMeV = CN[CH](C(=O)O)C(C)C; Boc = CC(C)(C)OC(=O)*; OBn = c1ccc(CO*)cc1

Legend:
Experiment in all cases: NCI-60 cell line screen, 48 h
[1] = tested on: A498 renal
[2] = tested on: A549 NSCLC
[3] = tested on: EKVX NSCLC
[4] = tested on: HOP-92 NSCLC
[5] = tested on: LOX IMVI melanoma
[6] = tested on: M14 melanoma
[7] = tested on: MDA-N
[8] = tested on: RXF 393 renal
[9] = tested on: SK-MEL-5 melanoma
[10] = tested on: SN12C renal
[11] = tested on: T-47D breast
[12] = tested on: U251 CNS
[13] = tested on: UACC-257 melanoma
[14] = tested on: UACC-62 melanoma
[15] = tested on: HS 578T breast
[16] = tested on: NCI-H522 lung
[17] = tested on: SR leukemia

SMILES | TGI [1] [µM] | TGI [2] [µM] | TGI [3] [µM] | TGI [4] [µM] | TGI [5] | TGI [6] [µM] | TGI [7] [µM] | TGI [8] [µM] | TGI [9] [µM] | TGI [10] [µM] | TGI [11] [µM] | TGI [12] [µM] | TGI [13] [µM] | TGI [14] [µM] | TGI [15] [µM] | TGI [16] | TGI [17] | GI50 [5] | GI50 [10] | GI50 [13]
C/C(O)=C(\C=N\C(=S)N=Nc1c(O)[nH]c2ccccc12)C(=O)Nc1ccccc1C | > 100 | > 100 | > 100 | > 100 | > 100 µM | > 100 | > 100 | > 100 | > 100 | > 100 | > 100 | > 100 | > 100 | > 100 |  |  |  |  |  | 
CC(Br)CN1CCOCC1 (centres undefined) | > 100 | > 100 | > 100 | > 100 | > 100 µM | > 100 |  | > 100 | > 100 | > 100 | > 100 | > 100 | > 100 | > 100 | > 100 | > 100 µM | > 100 µM |  |  | 
CC(O)CNC(=O)Nc1c(C(F)(F)F)cc(-c2ccccc2)[nH]c1=O (centres undefined) | > 100 | > 100 | > 100 | > 100 | > 100 µM | > 100 |  | > 100 | > 100 | > 100 | > 100 | > 100 | > 100 | > 100 | > 100 | > 100 µM |  |  |  | 
C=C1CC[C@@H]2C13[C@@H]1[C@H](CC(=O)[C@@]23C)C1(C)C (some centres undefined) | > 100 | > 100 |  | > 100 | > 100 µM | > 100 |  | > 100 | > 100 | > 100 | > 100 | > 100 | > 100 | > 100 | > 100 | > 100 µM | > 100 µM |  |  | 
CCOC(=O)CN1C(=O)NC(C)(c2ccccc2)C1=O (centres undefined) | > 100 | > 100 | > 100 | > 100 | > 100 µM | > 100 |  | > 100 | > 100 | > 100 | > 100 | > 100 | > 100 | > 100 | > 100 | > 100 µM |  |  |  | 
COc1ccc2c(c1)CCc1c-2[nH]c2cc3c(cc2c1=O)OCO3 |  | > 100 | > 100 | > 100 | > 100 µM | > 100 |  |  |  | > 100 |  | > 100 |  | > 100 |  | > 100 µM | > 100 µM |  |  | 
Clc1cccc(-c2nc3cccc4c3n2Cc2ncccc2-4)c1 | > 100 | > 100 | > 100 | > 100 |  | > 100 | > 100 | > 100 |  | > 100 | > 100 | > 100 | > 100 | > 100 |  | > 100 µM | > 100 µM |  |  | 
CC[C@H](C)[C@H]1NC(=O)[C@@H](N)[C@@H](C)OC(=O)[C@H](Cc2ccc(OC)cc2)N(C)C(=O)[C@@H]2CCCN2C(=O)[C@H](CC(C)C)NC(=O)[C@@H](C)C(=O)[C@H](C(C)C)OC(=O)C[C@@H]1O (H-T[X35]LP[NMeY](Me); ester 1-C) |  | > 100 | > 100 |  | > 100 µM | 32.3 |  | > 100 | 54.9 | > 100 |  | > 100 | > 100 | 92.3 | > 100 | 25.1 µM | > 100 µM |  |  | 
C=C(C)[C@H]1CC[C@@]23O[C@@H]2[C@@H](C[C@@]2(C)CC(=O)[C@H](CC(=O)C1)O2)OC(=O)[C@@]12CC[C@H](C(=C)C)CC(=O)C[C@H]4O[C@](C)(CC4=O)C[C@@H](OC3=O)[C@@H]1O2 | > 100 | > 100 | > 100 | > 100 | > 100 µM | > 100 | > 100 | > 100 | > 100 | > 100 | > 100 | > 100 | > 100 | > 100 |  | > 100 µM |  |  |  | 
CNC(=O)C(C)Oc1ccc(OCC2CCCCC2)cc1 (centres undefined) | > 100 | > 100 |  |  | > 100 µM | > 100 |  | > 100 | > 100 | > 100 |  | > 100 | > 100 | > 100 |  | > 100 µM |  |  |  | 
O=c1[nH]c2c(c(=O)[nH]1)SC(c1ccccc1)C2 (centres undefined) | > 100 | > 100 | > 100 | > 100 | > 100 µM | > 100 | > 100 | > 100 | > 100 |  |  | > 100 | > 100 |  | > 100 | > 100 µM |  |  |  | 
COc1cc(S(=O)(=O)Nc2ccc(-c3csc(N4C(=O)C(C)SC4c4cccs4)n3)cc2)ccc1Cl (centres undefined) | > 100 |  | > 100 | > 100 | 96.7 µM | > 100 |  | 31.1 | > 100 | > 100 | 27.3 |  |  | > 100 | > 100 | 56.6 µM | > 100 µM |  |  | 
CC(C)C(NC(=O)OC(C)(C)C)C(=O)N(C)C(Cc1ccccc1)C(=O)N(C)C(C(=O)OCc1ccccc1)C(C)C (stereo not drawn) (Boc-Val-[NMeF]-[NMeV]-OBn; configuration not given here) |  | > 100 | > 100 |  | 35.7 µM and > 100 µM | > 100 |  |  | 44.6 | > 100 |  | > 100 | > 100 | > 100 |  | 29.7 µM and 69 µM | > 100 µM and 96.2 µM | 16.3 µM and 62.9 µM | 44.3 µM and > 100 µM | 20.5 µM and 44.3 µM
CNc1cc([N+](=O)[O-])ccc1C(=O)N1CCC[C@H]1CO | > 100 | > 100 | > 100 | > 100 | > 100 µM | > 100 | > 100 |  |  | > 100 | > 100 | > 100 | > 100 | > 100 |  | > 100 µM | > 100 µM |  |  | 
Nc1nc(SCC(=O)c2ccccc2)c2[nH]cnc2n1 | > 100 | > 100 |  | > 100 | > 100 µM | > 100 |  |  | > 100 | > 100 |  | > 100 | > 100 | > 100 |  | > 100 µM | > 100 µM |  |  | 
